Measured values taken from ChEMBL document CHEMBL1201862, “PubChem BioAssay data set” (2004).
Activity calls are given as the source filed them.

Legend:
[1] = target: Platelet-activating factor acetylhydrolase (Mus musculus, UniProt Q60963); assay: Late stage assay provider results from the probe development effort to identify inhibitors of plasma platelet activating factor acetylhydrolase (pPAFAH): fluorescence-based dose response biochemical gel-based competitive Activity-Based Protein Profiling (ABPP) assay for HTS compounds. [Related pubchem assays (depositor defined):AID463082, AID463092, AID463230, AID588474]; format: cell-free
[2] = target: 5-hydroxytryptamine receptor 1E (Homo sapiens, UniProt P28566); assay: Counterscreen assay for S1P3 antagonists: Dose response cell-based high throughput screening assay to identify antagonists of the 5-Hydroxytryptamine Receptor Subtype 1E (5HT1E). [Related pubchem assays: 1429, 485 ]; format: functional
[3] = target: Sphingosine 1-phosphate receptor 3 (Homo sapiens, UniProt Q99500); assay: Dose response cell-based high throughput screening assay for antagonists of the Sphingosine 1-Phosphate Receptor 3 (S1P3). [Related pubchem assays: 1429, 485 ]; format: functional
[4] = target: G-protein coupled receptor 55 (Homo sapiens, UniProt Q9Y2T6); assay: selective activators of receptor GPR55 – imaging, U2OS cells, beta-arrestin-GFP redistribution, primary screen (AID 1961); format: functional
CHO = CHO cell viability loss, potency – luminescence, cytotoxicity control for TLR9-MyD88 binding inhibitor project, dose response (AID 588339); format: functional, cell-based, hamster; conditions: Cricetulus griseus;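 note: CHO cells stably coexpressing TLR9 and MyD88 fusions from primary screen; compound exposure lasted 48 hours before viability readout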
Beta Lactamase = Beta Lactamase (Pseudomonas aeruginosa, UniProt Q932Y6); assay: BLA reporter interference, concentration series – BLA reporter cells, FRET fluorescence, artefact control for TLR9-MyD88 binding inhibitor project, dose response (AID 588341); format: cell-based;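 note: cell based assay in CHO-K1 cells stably expressing beta-lactamase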
[5] = target: T1, Botulinum neurotoxin type A (Clostridium botulinum (strain Hall / ATCC 3502 / NCTC 13319 / Type A), UniProt P0DPI1); assay: High-throughput multiplex microsphere dose response for inhibitors of toxin protease, specifically Botulinum neurotoxin light chain A protease, compounds from Cherry Pick 01.; format: functional; conditions: read-out: EC50_MICROM
[6] = target: T2, Botulinum neurotoxin type F (Clostridium botulinum, UniProt P30996); assay: High-throughput multiplex microsphere dose response for inhibitors of toxin protease, specifically Botulinum neurotoxin light chain F protease, compounds from Cherry Pick 01.; format: functional; conditions: read-out: EC50_MICROM
[7] = target: T1, Botulinum neurotoxin type A; assay: High-throughput multiplex microsphere dose response for inhibitors of toxin protease, specifically Botulinum neurotoxin light chain A protease, compounds from Powder Set 01.; format: functional, Clostridium botulinum A str. ATCC 3502; conditions: read-out: EC50_MICROM
[8] = target: T2, Botulinum neurotoxin type F; assay: High-throughput multiplex microsphere dose response for inhibitors of toxin protease, specifically Botulinum neurotoxin light chain F protease, compounds from Powder Set 01.; format: functional, Clostridium botulinum Bf; conditions: read-out: EC50_MICROM
[9] = target: T1, Botulinum neurotoxin type A; assay: Confirmatory FRET assay using full length substrates for Botulinum neurotoxin light chain A protease, with Powder Set01.; format: functional
Caspase-3 [10] = target: T3, Caspase-3 (Homo sapiens, UniProt P42574); format: functional
T3 sequence (P42574 whole entry): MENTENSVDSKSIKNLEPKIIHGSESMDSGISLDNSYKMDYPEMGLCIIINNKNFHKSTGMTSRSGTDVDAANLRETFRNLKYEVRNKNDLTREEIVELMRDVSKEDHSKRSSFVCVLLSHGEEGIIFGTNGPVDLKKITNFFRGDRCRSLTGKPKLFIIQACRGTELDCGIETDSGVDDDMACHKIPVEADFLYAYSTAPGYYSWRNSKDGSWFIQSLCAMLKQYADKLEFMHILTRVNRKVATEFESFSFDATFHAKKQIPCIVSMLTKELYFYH

[11] = target: T4, Sentrin-specific protease 7 (Homo sapiens, UniProt Q9BQF6); format: functional;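 note: Luminescence-based dose-response confirmation of ultra-high-throughput screening hits, measuring inhibition of SENP7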
T4 sequence (Q9BQF6 whole entry): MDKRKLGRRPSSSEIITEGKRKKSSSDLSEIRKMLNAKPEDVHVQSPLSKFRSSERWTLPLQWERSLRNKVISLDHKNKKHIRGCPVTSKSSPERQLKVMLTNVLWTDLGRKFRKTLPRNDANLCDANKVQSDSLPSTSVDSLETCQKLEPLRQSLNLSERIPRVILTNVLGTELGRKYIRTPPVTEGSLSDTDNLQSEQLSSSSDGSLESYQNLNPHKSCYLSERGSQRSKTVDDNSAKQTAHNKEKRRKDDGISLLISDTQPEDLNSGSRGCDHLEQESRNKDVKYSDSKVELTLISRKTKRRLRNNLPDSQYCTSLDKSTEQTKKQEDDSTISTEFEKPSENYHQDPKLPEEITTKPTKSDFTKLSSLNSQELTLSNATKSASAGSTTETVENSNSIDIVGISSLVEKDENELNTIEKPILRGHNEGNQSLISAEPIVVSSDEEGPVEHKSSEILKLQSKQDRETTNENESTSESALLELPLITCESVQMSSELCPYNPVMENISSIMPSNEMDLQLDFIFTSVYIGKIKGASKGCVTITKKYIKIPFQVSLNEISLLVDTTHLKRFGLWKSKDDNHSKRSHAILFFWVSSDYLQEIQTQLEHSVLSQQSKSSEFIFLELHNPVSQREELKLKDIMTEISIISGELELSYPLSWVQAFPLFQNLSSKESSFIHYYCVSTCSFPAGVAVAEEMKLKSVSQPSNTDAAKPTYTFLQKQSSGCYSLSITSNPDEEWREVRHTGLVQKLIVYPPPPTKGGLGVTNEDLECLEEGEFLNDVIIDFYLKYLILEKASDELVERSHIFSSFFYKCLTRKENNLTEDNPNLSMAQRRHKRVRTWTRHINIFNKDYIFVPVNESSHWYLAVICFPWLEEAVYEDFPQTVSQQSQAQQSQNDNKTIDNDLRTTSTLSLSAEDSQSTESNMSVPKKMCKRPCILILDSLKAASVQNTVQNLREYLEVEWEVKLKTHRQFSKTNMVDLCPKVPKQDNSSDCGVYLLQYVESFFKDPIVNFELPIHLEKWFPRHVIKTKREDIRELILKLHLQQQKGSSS

[12] = target: T5, Sentrin-specific protease 6 (Homo sapiens, UniProt Q9GZR1); format: functional
T5 sequence (Q9GZR1 whole entry): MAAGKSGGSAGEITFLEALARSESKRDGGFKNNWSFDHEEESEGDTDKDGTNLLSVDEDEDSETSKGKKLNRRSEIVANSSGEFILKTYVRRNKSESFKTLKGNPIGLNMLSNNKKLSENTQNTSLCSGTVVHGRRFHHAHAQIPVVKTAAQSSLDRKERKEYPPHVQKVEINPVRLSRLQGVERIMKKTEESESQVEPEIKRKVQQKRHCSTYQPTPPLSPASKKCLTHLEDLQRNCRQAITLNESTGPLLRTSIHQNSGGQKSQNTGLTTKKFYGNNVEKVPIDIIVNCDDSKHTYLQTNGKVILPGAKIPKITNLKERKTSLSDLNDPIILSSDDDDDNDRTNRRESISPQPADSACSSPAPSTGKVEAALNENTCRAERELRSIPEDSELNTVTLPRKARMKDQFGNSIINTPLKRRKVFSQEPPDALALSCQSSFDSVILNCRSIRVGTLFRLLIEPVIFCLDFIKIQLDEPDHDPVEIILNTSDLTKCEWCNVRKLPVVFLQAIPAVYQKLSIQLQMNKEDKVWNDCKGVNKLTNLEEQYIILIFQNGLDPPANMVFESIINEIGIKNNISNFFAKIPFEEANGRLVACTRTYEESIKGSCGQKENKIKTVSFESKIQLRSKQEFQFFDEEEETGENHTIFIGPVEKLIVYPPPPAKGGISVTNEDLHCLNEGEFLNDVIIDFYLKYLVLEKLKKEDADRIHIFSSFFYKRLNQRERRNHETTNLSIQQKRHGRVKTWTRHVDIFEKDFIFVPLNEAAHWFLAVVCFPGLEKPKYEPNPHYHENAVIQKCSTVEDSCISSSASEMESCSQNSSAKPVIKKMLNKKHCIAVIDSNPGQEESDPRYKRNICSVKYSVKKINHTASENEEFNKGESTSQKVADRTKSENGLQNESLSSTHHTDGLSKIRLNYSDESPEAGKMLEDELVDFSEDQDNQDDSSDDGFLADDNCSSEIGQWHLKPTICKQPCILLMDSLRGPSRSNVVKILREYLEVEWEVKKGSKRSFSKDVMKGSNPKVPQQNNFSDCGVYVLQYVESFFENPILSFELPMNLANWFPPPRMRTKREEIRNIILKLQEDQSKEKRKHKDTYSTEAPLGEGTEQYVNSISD

[13] = target: T6, Sentrin-specific protease 8 (Homo sapiens, UniProt Q96LD8); format: functional;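 note: luminescence read-out of SENP8 inhibition, dose-response confirmation following an ultra-high-throughput screen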
T6 sequence (Q96LD8 whole entry): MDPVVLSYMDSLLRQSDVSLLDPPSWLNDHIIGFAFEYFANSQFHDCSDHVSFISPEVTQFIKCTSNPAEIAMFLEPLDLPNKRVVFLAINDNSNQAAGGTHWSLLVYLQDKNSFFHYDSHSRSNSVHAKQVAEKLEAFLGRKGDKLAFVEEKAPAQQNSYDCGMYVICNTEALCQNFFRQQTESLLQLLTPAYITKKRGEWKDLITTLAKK

[14] = target: T6, Sentrin-specific protease 8; assay: inhibition of human SENP8 cleavage activity – biochemical, luminescence, SAR follow-up (AID 504501); format: functional
Caspase-3 [15] = target: T3, Caspase-3; assay: SAR Analysis of small molecule inhibitors of Sentrin-specific proteases (SENPs) using a Caspase-3 Selectivity assay. [Related pubchem assays (depositor defined):AID2540, AID2599, AID434973, AID489001]; format: functional
[16] = target: T5, Sentrin-specific protease 6; assay: SAR Analysis of small molecule inhibitors of Sentrin-specific protease 6 (SENP6) using a Luminescent assay. [Related pubchem assays (depositor defined):AID2582, AID2599]; format: functional
[17] = target: T4, Sentrin-specific protease 7; assay: inhibition of human SENP7 cleavage activity – biochemical, luminescence, SAR follow-up (AID 504497); format: functional

T1 sequence (P0DPI1 2-448 limits assumed): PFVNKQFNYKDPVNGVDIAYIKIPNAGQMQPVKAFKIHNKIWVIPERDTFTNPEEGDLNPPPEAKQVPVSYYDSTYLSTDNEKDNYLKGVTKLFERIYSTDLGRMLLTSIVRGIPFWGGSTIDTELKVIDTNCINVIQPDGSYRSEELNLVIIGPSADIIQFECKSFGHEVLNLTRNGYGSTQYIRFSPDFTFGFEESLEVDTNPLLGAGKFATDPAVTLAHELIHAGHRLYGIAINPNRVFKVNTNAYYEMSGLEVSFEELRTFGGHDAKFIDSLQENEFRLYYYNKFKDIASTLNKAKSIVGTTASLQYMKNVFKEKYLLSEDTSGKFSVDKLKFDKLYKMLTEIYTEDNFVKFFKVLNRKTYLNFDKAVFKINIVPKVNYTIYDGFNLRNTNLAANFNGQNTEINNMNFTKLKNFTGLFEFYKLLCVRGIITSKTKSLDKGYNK
T2 sequence (P30996 1-436 limits assumed): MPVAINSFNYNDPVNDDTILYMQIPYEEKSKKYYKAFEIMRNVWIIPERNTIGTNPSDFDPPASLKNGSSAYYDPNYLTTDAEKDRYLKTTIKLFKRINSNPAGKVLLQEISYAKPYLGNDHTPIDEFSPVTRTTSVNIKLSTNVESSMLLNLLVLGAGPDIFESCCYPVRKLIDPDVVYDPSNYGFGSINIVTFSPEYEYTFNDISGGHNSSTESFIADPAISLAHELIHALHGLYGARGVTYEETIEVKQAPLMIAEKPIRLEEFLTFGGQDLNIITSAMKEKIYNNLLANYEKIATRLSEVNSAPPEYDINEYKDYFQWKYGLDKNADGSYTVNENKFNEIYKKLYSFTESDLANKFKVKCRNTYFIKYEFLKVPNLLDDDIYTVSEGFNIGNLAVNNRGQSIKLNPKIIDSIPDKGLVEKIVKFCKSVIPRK
Chain of Sphingosine 1-phosphate receptor 3 (Q99500 whole entry): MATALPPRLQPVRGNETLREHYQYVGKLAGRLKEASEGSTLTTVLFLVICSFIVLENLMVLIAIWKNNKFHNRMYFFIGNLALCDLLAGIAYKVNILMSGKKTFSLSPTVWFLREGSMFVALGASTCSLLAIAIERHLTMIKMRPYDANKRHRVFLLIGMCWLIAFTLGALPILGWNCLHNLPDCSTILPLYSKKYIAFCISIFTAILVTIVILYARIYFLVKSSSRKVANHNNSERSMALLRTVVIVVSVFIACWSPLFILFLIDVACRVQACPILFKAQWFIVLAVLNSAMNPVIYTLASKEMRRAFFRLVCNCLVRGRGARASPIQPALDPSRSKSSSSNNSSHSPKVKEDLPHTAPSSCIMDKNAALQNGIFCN
Chain of Platelet-activating factor acetylhydrolase (Q60963 whole entry): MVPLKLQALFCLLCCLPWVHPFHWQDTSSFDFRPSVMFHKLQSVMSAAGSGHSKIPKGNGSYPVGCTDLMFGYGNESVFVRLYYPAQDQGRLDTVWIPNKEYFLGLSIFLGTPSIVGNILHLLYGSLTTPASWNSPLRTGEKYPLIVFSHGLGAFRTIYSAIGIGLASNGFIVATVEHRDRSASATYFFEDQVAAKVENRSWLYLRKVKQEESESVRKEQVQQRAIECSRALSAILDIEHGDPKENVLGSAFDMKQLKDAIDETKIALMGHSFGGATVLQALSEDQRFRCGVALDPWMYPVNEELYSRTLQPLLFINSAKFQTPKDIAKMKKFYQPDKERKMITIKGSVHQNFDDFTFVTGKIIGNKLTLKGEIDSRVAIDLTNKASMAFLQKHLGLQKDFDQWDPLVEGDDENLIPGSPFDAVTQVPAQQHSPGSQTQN
Chain of Beta Lactamase (Q932Y6 whole entry): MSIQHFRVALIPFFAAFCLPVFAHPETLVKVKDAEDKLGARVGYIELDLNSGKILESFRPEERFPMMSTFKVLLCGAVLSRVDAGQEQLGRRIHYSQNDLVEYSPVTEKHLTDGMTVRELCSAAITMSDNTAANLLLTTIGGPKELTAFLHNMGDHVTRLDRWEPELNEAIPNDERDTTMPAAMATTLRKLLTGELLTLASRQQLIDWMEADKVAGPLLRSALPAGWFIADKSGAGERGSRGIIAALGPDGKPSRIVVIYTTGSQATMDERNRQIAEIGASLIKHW
Chain of G-protein coupled receptor 55 (Q9Y2T6 whole entry, the tested form may be a part): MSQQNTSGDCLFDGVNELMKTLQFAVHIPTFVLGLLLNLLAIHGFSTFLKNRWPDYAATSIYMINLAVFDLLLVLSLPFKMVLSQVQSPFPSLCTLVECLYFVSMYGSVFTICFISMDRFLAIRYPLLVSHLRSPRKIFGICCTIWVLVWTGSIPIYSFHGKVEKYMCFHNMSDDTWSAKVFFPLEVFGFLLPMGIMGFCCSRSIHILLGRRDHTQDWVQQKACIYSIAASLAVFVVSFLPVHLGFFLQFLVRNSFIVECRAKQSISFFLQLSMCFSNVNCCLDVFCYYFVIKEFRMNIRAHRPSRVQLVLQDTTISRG
Chain of 5-hydroxytryptamine receptor 1E (P28566 whole entry): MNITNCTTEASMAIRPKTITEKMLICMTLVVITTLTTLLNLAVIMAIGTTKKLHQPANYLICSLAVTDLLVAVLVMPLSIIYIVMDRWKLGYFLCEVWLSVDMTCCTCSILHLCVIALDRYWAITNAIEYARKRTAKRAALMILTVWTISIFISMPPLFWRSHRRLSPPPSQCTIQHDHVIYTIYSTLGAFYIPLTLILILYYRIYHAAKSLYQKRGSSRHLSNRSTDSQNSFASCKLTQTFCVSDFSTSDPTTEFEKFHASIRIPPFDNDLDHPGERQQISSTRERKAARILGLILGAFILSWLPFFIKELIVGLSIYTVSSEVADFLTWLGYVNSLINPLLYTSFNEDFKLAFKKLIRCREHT

CN(C)C(=O)Oc1noc2cc(Cl)ccc12
IC50 [1]: 0.234 µM (active)

O=[N+]([O-])c1ccc(C2=NN(c3ccccc3)C(c3ccco3)C2)cc1 (centres undefined)
IC50 [2]: 2.49 µM (active) | IC50 [3]: 3.78 µM (active) | EC50 [4]: < 0.5 µM (active) | IC50 (CHO): > 49.7 µM (inactive) | IC50 (Beta Lactamase): 2.64 µM (active) | EC50 [5]: 2.6 µM (active) | EC50 [6]: 1.5 µM (active) | EC50 [7]: 0.4 µM (active) | EC50 [8]: 0.5 µM (active) | EC50 [9]: 3.1 µM (active)

Cc1cc(O)c(-c2cc(C(=O)Nc3cccnc3)[nH]n2)cc1C
IC50 (Caspase-3 [10]): 32.2 µM (active) | IC50 [11]: 3.61 µM (active) | IC50 [12]: > 100 µM (inactive) | IC50 [13]: > 100 µM (inactive) | IC50 [14]: > 99 µM (inactive) | IC50 (Caspase-3 [15]): 8.64 µM (active) | IC50 [16]: > 99 µM (inactive) | IC50 [17]: 2.97 µM (active)
